# Assay results taken from US8211931B2, “Active compound combinations having insecticidal and acaricidal properties” (Bayer Cropscience AG, priority 2006, dated 2012).
# Assays:
# Type in all cases: in vivo
# Psylla pyri = experiment: Field test on pear trees against pear psyllids, kill of L-1 and L-4 nymphs; details: for Activity (% Abbott) Psylla piri L-1: L-1 nymphs; for Activity (% Abbott) Psylla piri L-4: L-4 nymphs
# Procedure: In 4 replications, pear trees of the cultivar “Conference” of a height of about 3 m are treated against pear psyllids, Psylla pyri. Here, the active compound (I-4′) (100 OD) and the commercial standard Amitraz (UL 400) are applied at the stated application rates. The application is carried out using a knapsack sprayer and an application rate of 1000 l of water/ha. The beneficial species Anthocoris nemoralis appears 14 days after the treatment.
# Evaluation is carried out 4, 8 and 14 days after the treatment by evaluating the kill of the L-1 nymphs and the L-4 nymphs on the branches.
# Eriosoma lanigerum = experiment: Field test on apple trees against woolly apple aphids, kill according to Abbott
# Procedure: In three replications, in each case three about 25-year old apple trees (crown height about 2 m) of the cultivar “Elan” are treated against woolly apple aphids, Eriosoma lanigerum. Here, the active compound (I-4′) (150 OD) and the commercial standard clothianidin (WG 50) are tested comparatively at the stated application rates in the presence of the woolly aphid parasite (beneficial species) Aphelinus mali. The application is carried out using an atomizer at a water application rate of 500 l/ha. Both one and two applications at an interval of 34 days are carried out.
# Evaluation is carried out 7, 30, 44, 52, 59, 66 and 73 days after the first treatment by evaluating the kill of the adult pests and the number of parasitic pests in each case 10 colonies according to Abbott.
# Bemisia tabaci = Bemisia tabaci test (cotton leaves sprayed, mirid bugs added); details: 0.16 ppm, active compound alone
# Procedure: (§1) To produce a suitable preparation of active compound, 1 part by weight of active compound is mixed with the stated amounts of solvent and emulsifier, and the concentrate is diluted with emulsifier-containing water to the desired concentration.
# Cotton leaves (Gossypium hirsutum) infested by the whitefly (Bemisia tabacii) are treated by being sprayed with the preparation of active compound at the desired concentration.
# After the desired period of time, a defined amount of mirid bugs (Macrolophus caliginosus) is added.
# After the desired period of time, the kill of the pest in % is determined. 100% means that all whiteflies have been killed; 0% means that none of the whiteflies have been killed. The determined kill rates are entered into Colby's formula.
# Myzus persicae = Myzus persicae test (cabbage leaves sprayed, ladybird larvae added); details: 4 ppm, active compound alone
# Procedure: as §1
# Cabbage leaves (Brassica oleracea) infested by the green peach aphid (Myzus persicae) are treated by being sprayed with the preparation of active compound at the desired concentration.
# After the desired period of time, a defined amount of ladybird larvae (Coccinella septempunctata) is added.
# After the desired period of time, the kill of the pest in % is determined. 100% means that all aphids have been killed; 0% means that none of the aphids have been killed.
# The determined kill rates are entered into Colby's formula.
# [1] = 8 d, 400 g/ha/m crown height, UL 400
# [2] = 14 d, 400 g/ha/m crown height, UL 400
# [3] = 8 d, 75 g/ha/m crown height, 100 OD
# [4] = 14 d, 75 g/ha/m crown height, 100 OD
smiles,measurement,setting,value
"Cc1ccc(/N=C/N(C)/C=N/c2ccc(C)cc2C)c(C)c1 [Amitraz, reference compound]",Activity (% Abbott) Psylla piri L-1,"Psylla pyri; 4 d, 400 g/ha/m crown height, UL 400, pear trees",23.6 % Abbott
same,Activity (% Abbott) Psylla piri L-1,Psylla pyri; [1],41.0 % Abbott
same,Activity (% Abbott) Psylla piri L-1,Psylla pyri; [2],41.8 % Abbott
same,Activity (% Abbott) Psylla piri L-4,"Psylla pyri; 4 d, 400 g/ha/m crown height, UL 400",0.0 % Abbott
same,Activity (% Abbott) Psylla piri L-4,Psylla pyri; [1],44.6 % Abbott
same,Activity (% Abbott) Psylla piri L-4,Psylla pyri; [2],44.4 % Abbott
CCOC(=O)OC1=C(c2cc(C)ccc2C)C(=O)N[C@]12CC[C@@H](OC)CC2 [Ex. I-4′],Activity (% Abbott) Eriosoma lanigerum,"Eriosoma lanigerum; 7 d, 75 g/ha/m crown height, 150 OD, one treatment, apple trees, Aphelinus mali present",48 % Abbott
same,Activity (% Abbott) Eriosoma lanigerum,"Eriosoma lanigerum; 30 d, 75 g/ha/m crown height, 150 OD, one treatment",95 % Abbott
same,Activity (% Abbott) Eriosoma lanigerum,"Eriosoma lanigerum; 44 d, 75 g/ha/m crown height, 150 OD, one treatment",99 % Abbott
same,Activity (% Abbott) Eriosoma lanigerum,"Eriosoma lanigerum; 52 d, 75 g/ha/m crown height, 150 OD, one treatment",99.4 % Abbott
same,Activity (% Abbott) Eriosoma lanigerum,"Eriosoma lanigerum; 59 d, 75 g/ha/m crown height, 150 OD, one treatment",98.2 % Abbott
same,Activity (% Abbott) Eriosoma lanigerum,"Eriosoma lanigerum; 66 d, 75 g/ha/m crown height, 150 OD, one treatment",98 % Abbott
same,Activity (% Abbott) Eriosoma lanigerum,"Eriosoma lanigerum; 73 d, 75 g/ha/m crown height, 150 OD, one treatment",98 % Abbott
same,Activity against Eriosoma lanigerum,Eriosoma lanigerum; after two treatments,100%
same,Kill in % after 14 d,Bemisia tabaci,0%
same,Kill in % after 7 d,Myzus persicae,10%
same,Activity (% Abbott) Psylla piri L-1,"Psylla pyri; 4 d, 75 g/ha/m crown height, 100 OD, pear trees",62.7 % Abbott
same,Activity (% Abbott) Psylla piri L-1,Psylla pyri; [3],69.5 % Abbott
same,Activity (% Abbott) Psylla piri L-1,Psylla pyri; [4],76.6 % Abbott
same,Activity (% Abbott) Psylla piri L-4,"Psylla pyri; 4 d, 75 g/ha/m crown height, 100 OD",91.4 % Abbott
same,Activity (% Abbott) Psylla piri L-4,Psylla pyri; [3],98.4 % Abbott
same,Activity (% Abbott) Psylla piri L-4,Psylla pyri; [4],99.3 % Abbott
"CN/C(=N\[N+](=O)[O-])NCc1cnc(Cl)s1 [Clothianidin, clothianidin, reference compound]",Activity (% Abbott) Eriosoma lanigerum,"Eriosoma lanigerum; 7 d, 37.5 g/ha/m crown height, WG 50, two treatments, apple trees, Aphelinus mali present",71 % Abbott
same,Activity (% Abbott) Eriosoma lanigerum,"Eriosoma lanigerum; 30 d, 37.5 g/ha/m crown height, WG 50, two treatments",76 % Abbott
same,Activity (% Abbott) Eriosoma lanigerum,"Eriosoma lanigerum; 44 d, 37.5 g/ha/m crown height, WG 50, two treatments",85 % Abbott
same,Activity (% Abbott) Eriosoma lanigerum,"Eriosoma lanigerum; 52 d, 37.5 g/ha/m crown height, WG 50, two treatments",81.8 % Abbott
same,Activity (% Abbott) Eriosoma lanigerum,"Eriosoma lanigerum; 59 d, 37.5 g/ha/m crown height, WG 50, two treatments",81.8 % Abbott
same,Activity (% Abbott) Eriosoma lanigerum,"Eriosoma lanigerum; 66 d, 37.5 g/ha/m crown height, WG 50, two treatments",80 % Abbott
same,Activity (% Abbott) Eriosoma lanigerum,"Eriosoma lanigerum; 73 d, 37.5 g/ha/m crown height, WG 50, two treatments",80 % Abbott
